The values that follow come from patent publication US20130203069A1, “Dynamic Assay for Maintenance and Disruption of Tissue Level Organization and Architecture” (THE REGENTS OF THE UNIVERSITY OF CALIFORNIA, priority 2012, published 2013).

Assay [1] relates to HMEC strain 240L (LEPs and MEPs). The assay is described as follows: Microwell self-organization assay. Type of assay: cell-based, human. The conditions noted are these: for self-organization of LEPs and MEPs: actomyosin inhibitors (ML-7 3×10^−6 M, Y27632 10^−5 M) added at the beginning, refreshed every 24 h, over 48 h; for organization measured at 48 h: inhibitor added a single time after 24 h, when organization was already underway; for self-organization at the 24-h time point / differences in LEP:MEP ratios in the core and at the periphery by 48 h: inhibitor added a single time at 0 h; for differences in LEP:MEP ratios in the core and at the periphery by 48 h: P<0.01. From the text:
Micropatterned substrata were made according to Tan et al. (2004) “Simple approach to micropattern cells on common culture substrates by tuning substrate wettability”. Tissue Eng 10:865-872, hereby incorporated by reference. Polydimethylsiloxane (PDMS) microwell arrays were formed by curing prepolymer with base:cure ratio of 10:1 (Sylguard 184) against a prepatterned master. The arrays of wells were peeled away and were cut into 1-cm^2 pieces that were affixed with a few microliters of uncured PDMS to the bottom of a 24-well plate (Mitek). Plates with microwells were UV oxidized for 7 min (UVO-Cleaner 42; Jelight Co.), blocked with 2 mg/mL BSA (Sigma) for 1 h under vacuum, and rinsed with PBS and M87A. All self-organizing experiments were conducted with HMEC strain 240L. Flow cytometry-sorted HMEC were stained with CM-DiI, SP-DiOC18 (Steinberg M S, (1962) On the mechanism of tissue reconstruction by dissociated cells. I. Population kinetics, differential adhesiveness, and the absence of directed migration. Proc Natl Acad Sci USA 48:1577-1582), or DiIC18(Wei C, et al., (2007) Self-organization and branching morphogenesis of primary salivary epithelial cells. Tissue Eng 13:721-735)-DS (Invitrogen), used at 1:1,000 in PBS for 5 min at 37° C. followed by 15 min at 4° C. Cells were washed extensively with medium after staining Dye-stained HMEC were mixed at a ratio of 1:1 (LEP:MEP) or 1:1 (randomly stained green:red HMEC cultures) and were resuspended in M87A at 1 million cells/mL. […] HMEC were imaged at 0, 24, or 48 h with a spinning disk confocal microscope (Carl Zeiss). Red and green fluorescence channels in images taken at the ˜25-μm z axis positions of 30 wells from each condition at each time point were binarized using the Threshold function, merged into a Z-stack, and then averaged using ImageJ software (National Institutes of Health). Gray-scaled average images corresponding to LEP and MEP were merged into a single image with red or green look-up tables applied to each average image.
Heat maps were generated. Briefly, heat maps were normalized to the highest intensity value and were used to quantify sorting using the expression log2(mean green pixel intensity/mean red pixel intensity). A script was written using MATLAB (Mathworks) to plot differential intensity as a function of the distance from the center and to compute the average plot from θ of 0-360° (Fig S2).

The subject of assay [2] is MEPs. The assay is described as follows: Atomic force microscopy measurement of stiffness (MEPs). The class given is cell-based, human. The settings on record: 45 cells per condition. The protocol: (§1) Once samples were equilibrated to 25° C., cell deformity was measured, and stiffness was calculated as previously described (Alcaraz J, et al., (2008) Laminin and biomimetic extracellular elasticity enhance functional differentiation in mammary epithelia. EMBO J 27:2829-2838.). The resulting data were plotted using Prism(GraphPad Software) (n=45).

Assay [3] deals with LEPs. As to the kind of experiment: Atomic force microscopy measurement of stiffness (LEPs). Type of assay: cell-based, human. The conditions noted are these: 45 cells per condition. How it is done:
as §1

Assay [4] deals with E-cadherin. As to the kind of experiment: E-cadherin surface expression on LEPs and MEPs by flow cytometry. The class given is cell-based, human. The settings on record: Y27632 10−5 M or ML-7 3×10−6 M in HMEC medium for 6 h. The protocol: E-cadherin expression on LEP and MEP was measured by addition of anti-E-cadherin-A647 (clone 67A4; Biolegend) to the above mixture at 1:50.
(§2) To determine effects of inhibitors, Y27632 at 10−5 M (Calbiochem) or ML-7 at 3×10−6 M (Calbiochem) was added to HMEC medium for 6 h at 37° C. (5% CO2) before trypsinization and subsequent measurement of E-cadherin by FACS. To measure the ability of recEcad to bind to HMEC in presence of inhibitors, cells were suspended in their medium in Falcon tubes (to prevent adhesion to a culture surface) in the presence of Y27632 at 10−5M (Calbiochem), ML-7 at 3×10−6M (Calbiochem), or anti-E-cadherin (100 μg/mL; clone HECD-1; Invitrogen), or in calcium-free medium for 6 h at 37° C. (5% CO2). recEcad conjugated to human IgG Fc region was added at 100 μg/mL for 1 h on ice. HMEC then were washed with medium and incubated with anti-human IgG-A633 (1:500; Invitrogen) in their own medium.

Assay [5] deals with HMEC cell surfaces. The assay is described as follows: Recombinant E-cadherin (recEcad) binding to HMEC cell surfaces by flow cytometry. Type of assay: cell-based, human. The conditions noted are these: 6 h pretreatment/preincubation of HMEC in suspension; recEcad 100 μg/mL 1 h on ice. How it is done:
as §2

The subject of assay [6] is mouse mammary organoids. The conditions noted are these: time-lapse imaging studies; less catastrophic than in the HMEC microwell assay; cited from earlier work.
The test system of assay [7] is HCT116. The conditions noted are these: HCT116 epithelial cell line (Sahai et al. 2002); cited from earlier work.
For assay [8], the system named is MDCK. The settings on record: MDCK epithelial cell line (Sahai et al. 2002); cited from earlier work.

For `O=S(=O)(c1cccc2c(I)cccc12)N1CCCNCC1` [ML-7], in assay [1], the “self-organization of LEPs and MEPs” value was “prevented self-organization”; the “organization measured at 48 h” value is “obliterated organization”; the “self-organization at the 24-h time point” value is given as “prevented self-organization”; the “differences in LEP:MEP ratios in the core and at the periphery by 48 h” value is “differences in LEP:MEP ratios in the core and at the periphery were observed”. For the same compound, the MEP stiffness result in assay [2] is on record as “unaffected”. Besides, the LEP stiffness result in assay [3] is listed as “caused softening”. For the same compound, the “lineage-specific differences in E-cadherin expression” value in assay [4] is “did not change”. Also, the “recEcad binding to HMEC surfaces” value in assay [5] is recorded as “did not prevent”. Further, the “bilayered organization of mouse mammary organoids” value in assay [6] is given as “disrupted the clean bilayered organization”.
As to `C[C@@H](N)[C@H]1CC[C@H](C(=O)Nc2ccncc2)CC1` [Y27632], in assay [1], the “self-organization of LEPs and MEPs” value was “prevented self-organization”; the “organization measured at 48 h” value is recorded as “preserved the self-organized LEP cores”; the “self-organization at the 24-h time point” value is “prevented self-organization”; the “differences in LEP:MEP ratios in the core and at the periphery by 48 h” value is “differences in LEP:MEP ratios in the core and at the periphery were observed”. Moreover, in assay [2], the MEP stiffness result is listed as “unaffected”. Moreover, the LEP stiffness result in assay [3] is recorded as “caused softening”. The “lineage-specific differences in E-cadherin expression” value in assay [4] is “did not change”. In assay [5], the “recEcad binding to HMEC surfaces” value is listed as “did not prevent”. The “bilayered organization of mouse mammary organoids” value in assay [6] is given as “disrupted the clean bilayered organization”. In addition, in assay [7], the “breakdown and recycling of mature adherens junctions” value was “unable to break down and recycle”. In addition, in assay [8], the “breakdown and recycling of mature adherens junctions” value is “unable to break down and recycle”.
